Results: ChEMBL document CHEMBL4118195, “Synthesis and profiling of benzylmorpholine 1,2,4,5-tetraoxane analogue N205: Towards tetraoxane scaffolds with potential for single dose cure of malaria” (Bioorg Med Chem, 2018)

What was measured:
[1] = Drug metabolism in mouse liver microsomes at 5 uM after 60 mins by UPLC-MS analysis; assay type: ADME, microsome; conditions: read-out: Drug metabolism
[2] = Drug metabolism in human liver microsomes assessed as metabolite M+32 (III) formation at 5 uM after 60 mins by UPLC-MS analysis; assay type: ADME, microsome; conditions: 1 h
[3] = Drug metabolism in human liver microsomes assessed as metabolite M+32 (II) formation at 5 uM after 60 mins by UPLC-MS analysis; assay type: ADME, microsome; conditions: 1 h
[4] = Cmax in humanized NOD.Cg-Prkdcscid Il2rgtm1Wjl/SzJ mouse infected with Plasmodium falciparum Pf3D70087/N9 at 30 mg/kg, po administered as single dose after 0.25 to 23 hrs by LC-MS/MS analysis; assay type: ADME, organism-based; set-up: dose 30 mg/kg, route oral; conditions: in vivo
[5] = Drug metabolism in rat liver microsomes assessed as metabolite M+32 (II) formation at 5 uM after 60 mins by UPLC-MS analysis; assay type: ADME, microsome; conditions: 1 h
Mus musculus [6] = assay: Dose normalized AUC (0 to t) in humanized NOD.Cg-Prkdcscid Il2rgtm1Wjl/SzJ mouse infected with Plasmodium falciparum Pf3D70087/N9 at 30 mg/kg, po administered as single dose by LC-MS/MS analysis; assay type: ADME, organism-based; conditions: in vivo
[7] = Drug metabolism in human liver microsomes assessed as deaminated morpholine metabolite formation at 5 uM after 60 mins by UPLC-MS analysis; assay type: ADME, microsome; conditions: 1 h
[8] = Drug metabolism in mouse liver microsomes assessed as mono-oxygenation and dehydrogenation metabolite formation at 5 uM after 60 mins by UPLC-MS analysis; assay type: ADME, microsome; conditions: 1 h
[9] = Tmax in humanized NOD.Cg-Prkdcscid Il2rgtm1Wjl/SzJ mouse infected with Plasmodium falciparum Pf3D70087/N9 at 100 mg/kg, po administered as single dose by LC-MS/MS analysis; assay type: ADME, organism-based; conditions: in vivo
[10] = Drug metabolism in rat liver microsomes at 5 uM after 60 mins by UPLC-MS analysis; assay type: ADME, microsome; conditions: read-out: Drug metabolism
Cytochrome P450 3A4 = Cytochrome P450 3A4 (Homo sapiens, UniProt P08684); assay: Inhibition of CYP3A4 in human liver microsomes assessed as testosterone 6beta-hydroxylation after 4 to 40 mins in presence of NADPH by LCMS analysis; assay type: ADME
[11] = Drug metabolism in mouse liver microsomes assessed as bis-oxygenation and dehydrogenation metabolite formation at 5 uM after 60 mins by UPLC-MS analysis; assay type: ADME, microsome; conditions: 1 h
Mus musculus [12] = assay: Dose normalized AUC (0 to t) in humanized NOD.Cg-Prkdcscid Il2rgtm1Wjl/SzJ mouse infected with Plasmodium falciparum Pf3D70087/N9 at 15 mg/kg, po administered as single dose by LC-MS/MS analysis; assay type: ADME, organism-based; conditions: in vivo
[13] = Drug degradation in human liver microsomes assessed as compound half life at 5 uM by UPLC-MS method; assay type: ADME, microsome
[14] = Drug metabolism in mouse liver microsomes assessed as morpholine dealkylated metabolite formation at 5 uM after 60 mins by UPLC-MS analysis; assay type: ADME, microsome; conditions: 1 h
Plasmodium berghei [15] = assay: Antimalarial activity against Plasmodium berghei infected in mouse assessed as mouse mean survival days at 30 mg/kg, po administered as single dose; assay type: functional
[16] = Drug metabolism in human liver microsomes assessed as cleaved morpholine ring metabolite formation at 5 uM after 60 mins by UPLC-MS analysis; assay type: ADME, microsome; conditions: 1 h
[17] = Drug metabolism in rat liver microsomes assessed as bis-oxygenation and dehydrogenation metabolite formation at 5 uM after 60 mins by UPLC-MS analysis; assay type: ADME, microsome; conditions: 1 h
[18] = Intrinsic clearance in human liver microsomes assessed per mg protein at 5 uM by UPLC-MS analysis; assay type: ADME, microsome; conditions: read-out: CLH
Plasmodium berghei [19] = assay: Antimalarial activity against Plasmodium berghei infected in mouse assessed as reduction in parasitemia at 30 mg/kg, po administered as single dose measured on day 3 relative to control; assay type: functional; set-up: scale not given: the % may be the effect or the level left
[20] = Drug metabolism in rat liver microsomes assessed as ring dehydrogenated metabolite formation at 5 uM after 60 mins by UPLC-MS analysis; assay type: ADME, microsome; conditions: 1 h
[21] = Drug metabolism in mouse liver microsomes assessed as ring dehydrogenated metabolite formation at 5 uM after 60 mins by UPLC-MS analysis; assay type: ADME, microsome; conditions: 1 h
[22] = Drug metabolism in human liver microsomes assessed as morpholine dealkylated metabolite formation at 5 uM after 60 mins by UPLC-MS analysis; assay type: ADME, microsome; conditions: 1 h
[23] = AUC (0 to t) in humanized NOD.Cg-Prkdcscid Il2rgtm1Wjl/SzJ mouse infected with Plasmodium falciparum Pf3D70087/N9 at 5 mg/kg, po administered as single dose by LC-MS/MS analysis; assay type: ADME, organism-based; conditions: in vivo
[24] = Drug degradation in rat liver microsomes assessed as compound half life at 1 uM by UPLC-MS method; assay type: ADME, microsome
[25] = Drug metabolism in human liver microsomes assessed as ring dehydrogenated metabolite formation at 5 uM after 60 mins by UPLC-MS analysis; assay type: ADME, microsome; conditions: 1 h
[26] = Drug metabolism in rat liver microsomes assessed as morpholine ring opened metabolite formation at 5 uM after 60 mins by UPLC-MS analysis; assay type: ADME, microsome; conditions: 1 h
[27] = Drug metabolism in mouse liver microsomes assessed as deaminated morpholine metabolite formation at 5 uM after 60 mins by UPLC-MS analysis; assay type: ADME, microsome; conditions: 1 h
[28] = Oral bioavailability in Sprague-Dawley rat at 100 mg/kg administered via gavage by LC/MS analysis; assay type: ADME, organism-based; conditions: in vivo

Cytochrome P450 3A4, sequence (P08684 whole entry): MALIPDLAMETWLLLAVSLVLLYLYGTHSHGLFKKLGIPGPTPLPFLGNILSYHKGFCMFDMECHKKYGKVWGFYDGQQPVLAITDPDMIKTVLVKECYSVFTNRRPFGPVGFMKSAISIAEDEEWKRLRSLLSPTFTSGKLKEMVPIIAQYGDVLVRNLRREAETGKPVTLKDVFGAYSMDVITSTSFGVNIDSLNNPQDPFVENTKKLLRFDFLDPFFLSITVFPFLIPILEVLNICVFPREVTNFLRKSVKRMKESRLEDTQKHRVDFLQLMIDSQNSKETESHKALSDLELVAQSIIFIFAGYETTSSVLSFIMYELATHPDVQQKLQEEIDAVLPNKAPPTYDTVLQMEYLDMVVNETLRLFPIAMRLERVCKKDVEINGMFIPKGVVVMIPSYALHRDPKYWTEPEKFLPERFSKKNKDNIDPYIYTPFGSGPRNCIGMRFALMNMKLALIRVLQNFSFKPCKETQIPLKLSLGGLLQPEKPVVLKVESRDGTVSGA

## c1cc(C2CCC3(CC2)OOC2(OO3)C3CC4CC(C3)CC2C4)ccc1CN1CCOCC1 (centres undefined)
[1]
  metabolised at 1 h, 5 µM: 39%
[2]
  Drug metabolism: Metabolite_Notdetected
[3]
  Drug metabolism: Metabolite_Notdetected
[4]
  Cmax: 148 ng/mL
[5]
  Drug metabolism: Metabolite_Notdetected
Mus musculus [6]
  AUCt/dose: 0.0313 µg·h/mL/mg/kg
[7]
  Drug metabolism: Metabolite_Notdetected
[8]
  Drug metabolism: Metabolite_Notdetected
[9]
  Tmax: 30 min
[10]
  metabolised at 1 h, 5 µM: 82%
Cytochrome P450 3A4
  IC50: > 20 µM
[11]
  Drug metabolism: Metabolite_Notdetected
Mus musculus [12]
  AUCt/dose: 0.0499 µg·h/mL/mg/kg
[13]
  half-life at 5 µM: 43 min
[14]
  Drug metabolism: Metabolite_Notdetected
Plasmodium berghei [15]
  MSD: 26.3 days
[16]
  Drug metabolism: Metabolite_Notdetected
[17]
  Drug metabolism: Metabolite_Notdetected
[18]
  microsomal CLint at 5 µM: 41 µL/min/mg
Plasmodium berghei [19]
  Activity: 99.42%
[20]
  Drug metabolism: Metabolite_Notdetected
[21]
  Drug metabolism: Metabolite_Notdetected
[22]
  Drug metabolism: Metabolite_Notdetected
[23]
  AUC(0-t): 1280 ng·h/mL
[24]
  half-life at 1 µM: 15 min
[25]
  Drug metabolism: Metabolite_Notdetected
[26]
  Drug metabolism: Metabolite_Notdetected
[27]
  Drug metabolism: Metabolite_Notdetected
[28]
  bioavailability: 52%
